Measured values published in patent publication EP1510220B1 (priority 1993, dated 1994).

Tests used:
[1] = tested on: Vascular smooth muscle cells; test: DNA synthesis by [3H]-thymidine incorporation in rat vascular smooth muscle cells; assay type: cell-based; settings: between 12 and 24 hours after stimulation, control 17614 +/- 1714 cpm
Protocol: DNA synthesis was assayed by [^3H]-thymidine incorporation as described in Grainger et al., Biochem. J., 277:145-151, 1991. Vascular smooth muscle cells were subcultured, grown in DMEM + 10% FCS for 24 hours, made quiescent in serum-free DMEM for 48 hours and restimulated with 10% FCS at "0" hours. [^3H]-thymidine (5 microcuries/ml; available from Amersham International) was added 12 hours after restimulation and the cells were harvested after 24 hours. DNA synthesis by adventitial fibroblasts was determined similarly, except that the cells were made quiescent in serum-free DMEM for 24 hours.

[2] = tested on: Vascular smooth muscle cells (BO54); test: Scratch-migration assay with morphological toxicity grading; assay type: cell-based, baboon; design: key: - = no toxicity; +1 = minimal; +2 = mild; +3 = moderate; +4 = marked toxicity
Protocol: (§1) Scratch assays to determine the extent of smooth muscle cell migration inhibition by cytochalasin B were performed in accordance with the following protocol:
(§2) Vascular smooth muscle cells (BO54) were derived from explants of baboon aortic smooth muscle, as described in Example 1. The cells were grown in flat bottom, six well tissue culture plates, which hold about 5 ml of medium. The vascular smooth muscle cells were plated at 200,000 cells/well and placed at 37°C in a humidified 5% CO2 incubator for 18 hours. The wells were then scratched with a sterile portion of a single edge razor blade that was held by clamp or pliers and was brought aseptically into contact with the bottom of the well at a 90° angle. The cells from a small area along the scratch were removed by a sterile cotton tipped applicator while the blade was in contact with the bottom of the well. After incubation, the presence of cells in the "scratched" area is indicative of cell migration across the scratch line.
(§3) Briefly, a stock solution of cytochalasin B (Sigma Chemical Co.) in dimethyl sulfoxide (DMSO) at 1 mg/ml was prepared. Test dilutions of cytochalasin B or control medium were added. Each experiment included two sets of plates: • A set: Test agent exposure for 1, 3, 6, 8 and 10 days only; and • B set: Test agent exposure for 1, 3, 6, 8 and 10 days, followed by a seven day recovery time with control medium. Both sets of plates were fixed (10% formalin in PBS) and stained (0.02% crystal violet) at the end of the timed exposures. Test concentrations for cytochalasin B were 1, 0.1 and 0.01 µg/ml, and a negative medium control was included. Fresh medium and drug were supplied 3 times per week.
(§4) In this Table, "M" indicates Migration Grade, wherein - = no migration; +1 = minimal; +2 = mild; +3 = moderate; and +4 = marked (maximum density; limit of cell contact inhibition) migration of vascular smooth muscle cells into the cleared area adjacent to the scratch. In this Table, "T" denotes a morphological Toxicity Grade, wherein - = no toxicity; +1 = minimal; +2 = mild; +3 = moderate; and +4 = marked toxicity. The migration results are expressed as "Grade in the Cleared Area of the Well / Grade in an Undisturbed Region of the Well." The toxicity values represent a grade for all cells in each well.

[3] = tested on: Vascular smooth muscle cells (BO54); test: as above; assay type: cell-based, baboon; design: key to Migration Grade in the Cleared Area of the Well / Migration Grade in an Undisturbed Region of the Well: - = no migration; +1 = minimal; +2 = mild; +3 = moderate; +4 = marked (maximum density; limit of cell contact inhibition) migration
Protocol: as §1, §2, §3, §4

[4] = 7-day Recovery Post Exposure, 0.01 µg/mL, Day 1
[5] = 7-day Recovery Post Exposure, 0.01 µg/mL, Day 3
[6] = 7-day Recovery Post Exposure, 0.01 µg/mL, Day 6
[7] = 7-day Recovery Post Exposure, 0.01 µg/mL, Day 8
[8] = 7-day Recovery Post Exposure, 0.01 µg/mL, Day 10
[9] = 7-day Recovery Post Exposure, 0.1 µg/mL, Day 1
[10] = 7-day Recovery Post Exposure, 0.1 µg/mL, Day 3
[11] = 7-day Recovery Post Exposure, 0.1 µg/mL, Day 6
[12] = 7-day Recovery Post Exposure, 0.1 µg/mL, Day 8
[13] = 7-day Recovery Post Exposure, 0.1 µg/mL, Day 10
[14] = Continuous Exposure, 0.01 µg/mL, Day 1
[15] = Continuous Exposure, 0.01 µg/mL, Day 3
[16] = Continuous Exposure, 0.01 µg/mL, Day 6
[17] = Continuous Exposure, 0.01 µg/mL, Day 8
[18] = Continuous Exposure, 0.01 µg/mL, Day 10
[19] = Continuous Exposure, 0.1 µg/mL, Day 1
[20] = Continuous Exposure, 1.0 µg/mL, Day 6
[21] = Continuous Exposure, 1.0 µg/mL, Day 8
[22] = Continuous Exposure, 1.0 µg/mL, Day 10
[23] = 7-day Recovery Post Exposure, 1.0 µg/mL, Day 1
[24] = 7-day Recovery Post Exposure, 1.0 µg/mL, Day 3
[25] = 7-day Recovery Post Exposure, 1.0 µg/mL, Day 6
[26] = 7-day Recovery Post Exposure, 1.0 µg/mL, Day 8
[27] = 7-day Recovery Post Exposure, 1.0 µg/mL, Day 10
[28] = Continuous Exposure, 0.1 µg/mL, Day 3
[29] = Continuous Exposure, 0.1 µg/mL, Day 6
[30] = Continuous Exposure, 0.1 µg/mL, Day 8
[31] = Continuous Exposure, 0.1 µg/mL, Day 10
[32] = Continuous Exposure, 1.0 µg/mL, Day 1
[33] = Continuous Exposure, 1.0 µg/mL, Day 3

CC/C(=C(\c1ccccc1)c1ccc(OCCN(C)C)cc1)c1ccccc1 [tamoxifen, trans-2-[4-(1,2-diphenyl-1-butenyl)phenoxy]-N,N-dimethylethylamine]
16898 +/- 3417 cpm: DNA synthesis, [3H]-thymidine incorporation ([1]; 10 micromolar)
18002 +/- 4167 cpm: DNA synthesis, [3H]-thymidine incorporation ([1]; 50 micromolar)

cytochalasin B
+4/+4: Migration Grade in an Undisturbed Region of the Well [3, 6] | Migration Grade in the Cleared Area of the Well [3, 6] | Migration Grade in an Undisturbed Region of the Well [3, 7] | Migration Grade in the Cleared Area of the Well [3, 7] | Migration Grade in an Undisturbed Region of the Well [3, 8] | Migration Grade in the Cleared Area of the Well [3, 8] | Migration Grade in an Undisturbed Region of the Well [3, 13] | Migration Grade in the Cleared Area of the Well [3, 13]
+3: Migration Grade in the Cleared Area of the Well [3, 4] | Migration Grade in the Cleared Area of the Well [3, 5] | Migration Grade in the Cleared Area of the Well [3, 9] | Migration Grade in the Cleared Area of the Well [3, 10] | Migration Grade in the Cleared Area of the Well [3, 11] | Migration Grade in the Cleared Area of the Well [3, 12] | Migration Grade in an Undisturbed Region of the Well [3, 23] | Migration Grade in an Undisturbed Region of the Well [3, 24] | Migration Grade in an Undisturbed Region of the Well [3, 25] | Migration Grade in an Undisturbed Region of the Well [3, 26] | Migration Grade in an Undisturbed Region of the Well [3, 27] | Migration Grade in an Undisturbed Region of the Well [3, 14] | Migration Grade in the Cleared Area of the Well [3, 15] | Migration Grade in the Cleared Area of the Well [3, 16] | Migration Grade in the Cleared Area of the Well [3, 17] | Migration Grade in the Cleared Area of the Well [3, 18] | Migration Grade in an Undisturbed Region of the Well [3, 19]
+3 to +4: ability to migrate following removal of the therapeutic agent (grade) ([3]; 0.1 µg/ml, even after 10 days of continuous exposure)
+1 to +2: migration of vascular smooth muscle cells into the cleared area adjacent to the scratch (grade) ([3]; 0.1 µg/ml, summary of Table 1)
-: morphological Toxicity Grade [2, 4] | morphological Toxicity Grade [2, 5] | morphological Toxicity Grade [2, 6] | morphological Toxicity Grade [2, 7] | morphological Toxicity Grade [2, 8] | morphological Toxicity Grade [2, 9] | morphological Toxicity Grade [2, 10] | morphological Toxicity Grade [2, 11] | morphological Toxicity Grade [2, 12] | morphological Toxicity Grade [2, 13] | morphological Toxicity Grade [2, 14] | morphological Toxicity Grade [2, 15] | morphological Toxicity Grade [2, 16] | morphological Toxicity Grade [2, 17] | morphological Toxicity Grade [2, 18] | morphological Toxicity Grade [2, 19] | Migration Grade in the Cleared Area of the Well [3, 32] | Migration Grade in the Cleared Area of the Well [3, 33] | Migration Grade in the Cleared Area of the Well [3, 20] | Migration Grade in the Cleared Area of the Well [3, 21] | Migration Grade in the Cleared Area of the Well [3, 22]
+1: Migration Grade in the Cleared Area of the Well [3, 14] | Migration Grade in the Cleared Area of the Well [3, 19] | Migration Grade in the Cleared Area of the Well [3, 28]
+4: morphological Toxicity Grade [2, 20] | morphological Toxicity Grade [2, 21] | morphological Toxicity Grade [2, 22] | Migration Grade in an Undisturbed Region of the Well [3, 4] | Migration Grade in an Undisturbed Region of the Well [3, 5] | Migration Grade in an Undisturbed Region of the Well [3, 9] | Migration Grade in an Undisturbed Region of the Well [3, 10] | Migration Grade in an Undisturbed Region of the Well [3, 11] | Migration Grade in an Undisturbed Region of the Well [3, 12] | Migration Grade in an Undisturbed Region of the Well [3, 15] | Migration Grade in an Undisturbed Region of the Well [3, 16] | Migration Grade in an Undisturbed Region of the Well [3, 17] | Migration Grade in an Undisturbed Region of the Well [3, 18] | Migration Grade in an Undisturbed Region of the Well [3, 28] | Migration Grade in an Undisturbed Region of the Well [3, 29] | Migration Grade in an Undisturbed Region of the Well [3, 30] | Migration Grade in an Undisturbed Region of the Well [3, 31]
+2: Migration Grade in the Cleared Area of the Well [3, 23] | Migration Grade in the Cleared Area of the Well [3, 24] | Migration Grade in the Cleared Area of the Well [3, 25] | Migration Grade in the Cleared Area of the Well [3, 26] | Migration Grade in the Cleared Area of the Well [3, 27] | Migration Grade in the Cleared Area of the Well [3, 29] | Migration Grade in the Cleared Area of the Well [3, 30] | Migration Grade in the Cleared Area of the Well [3, 31] | Migration Grade in an Undisturbed Region of the Well [3, 32] | Migration Grade in an Undisturbed Region of the Well [3, 33] | Migration Grade in an Undisturbed Region of the Well [3, 20] | Migration Grade in an Undisturbed Region of the Well [3, 21] | Migration Grade in an Undisturbed Region of the Well [3, 22]
